Test results: PMC3108484 (Frontiers in Pharmacology, 2011)
Like-named read-outs stand apart in the source and are kept apart here. Blank lines part the entries; values can stand above or below the compound they belong to.

How the values were obtained:
rat esophagus = assay: Rat esophageal relaxation; format: in vivo; conditions: cumulative i.d. dosing, anesthetized rats
human 5-HT4(c) receptor = human 5-HT4(c) receptor (Homo sapiens, UniProt Q13639); format: cell-based; conditions: for pKb of GR113808 (Schild regression): GR113808 0.6, 1.7, or 5 nM, 95% CI
Sequence of human 5-HT4(c) receptor (Q13639 1-380 isoform Q13639-4): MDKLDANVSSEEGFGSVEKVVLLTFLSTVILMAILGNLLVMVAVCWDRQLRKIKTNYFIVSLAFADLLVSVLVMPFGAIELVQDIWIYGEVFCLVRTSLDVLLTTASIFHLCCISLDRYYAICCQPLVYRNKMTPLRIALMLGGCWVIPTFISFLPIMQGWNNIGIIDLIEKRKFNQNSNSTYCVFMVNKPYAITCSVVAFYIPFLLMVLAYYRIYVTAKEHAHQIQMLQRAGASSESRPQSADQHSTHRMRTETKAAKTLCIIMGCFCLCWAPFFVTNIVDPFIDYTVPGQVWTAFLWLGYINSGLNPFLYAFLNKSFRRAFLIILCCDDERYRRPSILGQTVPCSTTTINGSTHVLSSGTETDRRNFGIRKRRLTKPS

5-HT4 receptor = 5-HT4 receptor (Cavia porcellus, UniProt O70528); assay: Guinea pig colonic longitudinal muscle/myenteric plexus; conditions: for Guinea pig colonic LMMP contractile activity IA (mean % 5-HT max ± SEM): isolated tissue, % of primed 5-HT (0.3 μM) maximum
Sequence of 5-HT4 receptor (O70528 whole entry): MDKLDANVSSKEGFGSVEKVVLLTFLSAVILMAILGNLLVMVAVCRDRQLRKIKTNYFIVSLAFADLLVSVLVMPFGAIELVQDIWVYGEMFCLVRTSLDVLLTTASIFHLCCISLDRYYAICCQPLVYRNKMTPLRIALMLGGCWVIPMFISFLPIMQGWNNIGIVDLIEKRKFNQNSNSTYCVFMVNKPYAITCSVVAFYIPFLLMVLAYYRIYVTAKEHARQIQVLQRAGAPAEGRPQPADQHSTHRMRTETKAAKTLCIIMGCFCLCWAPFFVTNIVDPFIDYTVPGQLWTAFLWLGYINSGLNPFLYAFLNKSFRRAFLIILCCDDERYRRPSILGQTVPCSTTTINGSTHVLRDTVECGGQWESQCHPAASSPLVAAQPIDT

[1] = target: human 5-HT4(c) (h5-HT4(c)) receptor (Homo sapiens, UniProt Q13639); assay: biochemical
Sequence of human 5-HT4(c) (h5-HT4(c)) receptor (Q13639 1-380 isoform Q13639-4): as the sequence (Q13639 1-380 isoform Q13639-4) above

hERG potassium channel = hERG potassium channel (Homo sapiens, UniProt Q12809); assay: in vitro
Sequence of hERG potassium channel (Q12809 whole entry): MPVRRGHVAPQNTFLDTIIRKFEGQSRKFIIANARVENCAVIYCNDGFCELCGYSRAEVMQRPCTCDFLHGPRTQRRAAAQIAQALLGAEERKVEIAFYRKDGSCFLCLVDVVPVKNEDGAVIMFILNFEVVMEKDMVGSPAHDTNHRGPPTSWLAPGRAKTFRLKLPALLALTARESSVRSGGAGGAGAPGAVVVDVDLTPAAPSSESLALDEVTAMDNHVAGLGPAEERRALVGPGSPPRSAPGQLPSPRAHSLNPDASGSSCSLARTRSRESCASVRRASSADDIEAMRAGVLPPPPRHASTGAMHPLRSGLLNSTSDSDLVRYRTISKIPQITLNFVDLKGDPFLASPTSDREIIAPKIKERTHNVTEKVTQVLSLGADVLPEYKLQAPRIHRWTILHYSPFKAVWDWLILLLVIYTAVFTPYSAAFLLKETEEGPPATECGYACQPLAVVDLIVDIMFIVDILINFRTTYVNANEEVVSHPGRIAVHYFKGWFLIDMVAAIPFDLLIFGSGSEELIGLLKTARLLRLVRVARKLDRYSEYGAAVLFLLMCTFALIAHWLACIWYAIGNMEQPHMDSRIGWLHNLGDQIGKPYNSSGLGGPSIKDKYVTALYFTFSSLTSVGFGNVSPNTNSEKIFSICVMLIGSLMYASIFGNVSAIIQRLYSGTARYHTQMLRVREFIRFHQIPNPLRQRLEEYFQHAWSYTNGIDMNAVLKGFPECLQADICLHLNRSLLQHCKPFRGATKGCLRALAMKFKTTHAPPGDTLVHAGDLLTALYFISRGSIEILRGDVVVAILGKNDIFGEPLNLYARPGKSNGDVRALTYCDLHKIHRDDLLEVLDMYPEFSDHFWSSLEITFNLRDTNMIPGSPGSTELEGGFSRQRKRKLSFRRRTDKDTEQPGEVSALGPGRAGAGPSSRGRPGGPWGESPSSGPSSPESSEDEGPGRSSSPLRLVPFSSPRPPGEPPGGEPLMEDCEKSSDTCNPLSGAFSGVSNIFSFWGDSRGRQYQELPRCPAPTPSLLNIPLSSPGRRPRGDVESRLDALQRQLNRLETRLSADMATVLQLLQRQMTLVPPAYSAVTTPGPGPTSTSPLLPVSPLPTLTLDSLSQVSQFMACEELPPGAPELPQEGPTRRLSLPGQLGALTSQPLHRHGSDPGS

[2] = system: canine antrum, duodenum, and jejunum; assay: Dog gastrointestinal contractility; format: in vivo; conditions: oral, conscious fasted dogs; TD-8954 0.01 and 0.03 mg/kg, tegaserod 0.1 and 0.3 mg/kg

EC50 (human 5-HT4(c) receptor): 501 nM | EC50 (5-HT4 receptor): 3980 nM | Guinea pig colonic LMMP contractile activity IA (mean % 5-HT max ± SEM) (5-HT4 receptor): 37 ± 2 % 5-HT max | Guinea pig colonic LMMP contractile activity IA (mean % 5-HT max ± SEM) (5-HT4 receptor; listed as mosapride): 37 % 5-HT max | Ki [1]: 158 nM
SMILES: CCOc1cc(N)c(Cl)cc1C(=O)NCC1CN(Cc2ccc(F)cc2)CCO1 (stereo not shown) [Mosapride, mosapride]
dose associated with a relaxation response of 0.1 mm (rat esophagus): 4.37 mg/kg

Guinea pig colonic LMMP contractile activity IA (mean % 5-HT max ± SEM) (5-HT4 receptor): 45 ± 13 % 5-HT max | Guinea pig colonic LMMP contractile activity IA (mean % 5-HT max ± SEM) (5-HT4 receptor; listed as tegaserod): 45 % 5-HT max | Ki [1]: 2.51 nM
SMILES: [H]/N=C(/NCCCCC)N/N=C/c1c[nH]c2ccc(OC)cc12 [Tegaserod, tegaserod]
dose associated with a relaxation response of 0.1 mm (rat esophagus): 2.43 mg/kg | effect on contractility in the antrum, duodenum, and jejunum [2]: increases in contractility

shift of the TD-8954 concentration–response curve (5-HT4 receptor; piboserod 0.3 μM, guinea pig colonic LMMP): 614 fold
SMILES: CCCCN1CCC(CNC(=O)c2c3n(c4ccccc24)CCCO3)CC1 [piboserod]

The remaining lines, values behind:

SMILES: COCCCN1CCC(NC(=O)c2cc(Cl)c(N)c3c2OCC3)CC1 [Prucalopride, prucalopride]
dose associated with a relaxation response of 0.1 mm (rat esophagus): 0.30 mg/kg

SMILES: COc1cc(N)c(Cl)cc1C(=O)NC1CCN(CCCOc2ccc(F)cc2)CC1OC (stereo not shown) [Cisapride, cisapride]
dose associated with a relaxation response of 0.1 mm (rat esophagus): 2.66 mg/kg | Guinea pig colonic LMMP contractile activity IA (mean % 5-HT max ± SEM) (5-HT4 receptor): 75 ± 3 % 5-HT max | Guinea pig colonic LMMP contractile activity IA (mean % 5-HT max ± SEM) (5-HT4 receptor; listed as cisapride): 75 % 5-HT max | inhibition at 0.02 µM (hERG potassium channel): 65%

SMILES: Cn1cc(C(=O)OCC2CCN(CCNS(C)(=O)=O)CC2)c2ccccc21 [GR113808]
pKb of GR113808 (Schild regression) (human 5-HT4(c) receptor; against 5-HT, cAMP accumulation): 10.3 (95% CI: 10.2–10.4) | pKb of GR113808 (Schild regression) (human 5-HT4(c) receptor; against TD-8954, cAMP accumulation): 10.3 (95% CI: 10.2–10.5)
